Legend:
Type in all cases: cell-based, human
[1] = test system: NK1R (neurokinin 1 receptor) gene; assay: Gene expression assay by real-time PCR (NK1R); conditions: melanocytes (KaMC), 2 nM substance P, 5 days; control group = 1
Protocol: (§1) Melanocytes (KaMC) (KCTC 12015BP) deposited in the Korean Collection for Type Culture (KCTC) were cultured in M-254 medium (Gibco BRL, NY, USA) supplemented with Human Melanocyte Growth Supplement (HMGS; Gibco BRL, NY, USA) on a 6-well plate, while changing the medium every other day, in a 5% CO2 incubator at 37° C. until the cells occupied 95% of the plate area (95% confluence). […] The cells not treated with substance P or the alpine wormwood (Artemisia umbelliformis) extract of Example 1 were used as a control group. After removing the medium form the melanocytes cultured on the 6-well plate, the cells were washed 2 times with cold phosphate-buffered saline (PBS) and the remaining water was completely removed. […] 1 μL of the RNA was quantified using Synergy II (Biotek, USA). […] After adding 10 μL of Taqman Gene Expression Master Mix (Life Technologies, USA) and 1 μL of Assays-on-DemandTM (Life Technologies, USA) of NK1R (ACCESSION: NM_001058) and EDN1 (ACCESSION: NM_001168319) genes to 9 μL of the diluted cDNA, the expression of the genes was analyzed by relative quantification using 7500 Fast Real-Time PCR (Life Technologies, USA) with glyceraldehyde 3-phosphate dehydrogenase (GAPDH, ACCESSION: NM001256799) as a control gene. […]

EDN1 (endothelin 1) gene = assay: Gene expression assay by real-time PCR (EDN1); conditions: melanocytes (KaMC), 2 nM substance P, 5 days; control group = 1
Protocol: as §1

endothelin 1 (EDN1) = assay: Endothelin 1 ELISA assay of culture medium; conditions: melanocytes (KaMC) medium, 2 nM substance P; control group = 100%
Protocol: When the density of the melanocytes on the 6-well plate reached about 80% (˜80% confluence), they were incubated for a total of 5 days with 2 nM of stress-inducing substance P (Bachem Fechemikalien, Bubendorf, Switzerland) or the alpine wormwood (Artemisia umbelliformis) extract of Example 1 of different concentrations (0, 0.1, 1, 2 and 5 ppm). The cells not treated with substance P or the alpine wormwood (Artemisia umbelliformis) extract of Example 1 were used as a control group.
The culture medium of the cells treated with the extract in (2) of Test Example 1 were recovered and the amount of endothelin 1 (EDN1) comprised in the medium was measured at 450 nm using the human total endothelin ELISA kit (MyBioSource, USA).
Endothelin content (%)=(Absorbance/Total protein content)×100 [Equation 1]

- expression of the NK1R gene (relative quantification vs GAPDH) [1]: 4.2
SMILES: CSCC[C@H](NC(=O)[C@H](CC(C)C)NC(=O)CNC(=O)[C@H](Cc1ccccc1)NC(=O)[C@H](Cc1ccccc1)NC(=O)[C@H](CCC(N)=O)NC(=O)[C@H](CCC(N)=O)NC(=O)[C@@H]1CCCN1C(=O)[C@H](CCCCN)NC(=O)[C@@H]1CCCN1C(=O)[C@@H](N)CCCN=C(N)N)C(N)=O [substance P]
- expression of the EDN1 gene (relative quantification vs GAPDH) (EDN1 (endothelin 1) gene): 3.6
- content of endothelin 1 (absorbance/total protein content x 100) (endothelin 1 (EDN1)): 124%
